Experiment [1] relates to Human immunodeficiency virus 1. Kind of experiment: Binding affinity to HIV1 His-tagged N-terminal heptad repeat of envelope glycoprotein gp41 assessed as recovery of N36-drug complex at 1 uM after 2 hrs by LC-MS analysis.
Experiment [2] has as its system Human immunodeficiency virus 1. Kind of experiment: Binding affinity to HIV1 His-tagged N-terminal heptad repeat of envelope glycoprotein gp41 assessed as recovery of N36-drug complex at 10 uM after 2 hrs by LC-MS analysis.
Experiment [3] concerns Human immunodeficiency virus 1. Kind of experiment: Thermal stability of HIV1 envelope glycoprotein gp41 His-tagged N-terminal heptad repeat N36-drug complex assessed as thermal unfolding transition state by measuring molar ellipticity at 4 to 90 degC by circular dichroic spectra analysis.
Experiment [4] concerns Human immunodeficiency virus 1. The experiment is described as follows: Antiviral activity against HIV1 NL4-3 harboring gp41 D36G mutant infected in human HeLa cells expressing CD4-LTR-beta-gal assessed as inhibition of viral replication after 48 hrs by MAGI assay. The format is functional, organism-based.
In experiment [5] the test system is Human immunodeficiency virus 1. The experiment is described as follows: Binding affinity to HIV1 His-tagged N-terminal heptad repeat of envelope glycoprotein gp41 assessed as recovery of N36-drug complex at 6 uM after 2 hrs by LC-MS analysis.
Experiment [6] relates to Human immunodeficiency virus 1. Kind of experiment: Binding affinity to HIV1 His-tagged N-terminal heptad repeat of envelope glycoprotein gp41 assessed as recovery of N36-drug complex at 0.6 uM after 2 hrs by LC-MS analysis.

Residues, ends and D or L forms follow the SMILES beside them.

Turning to `CC[C@H](C)[C@H](NC(=O)[C@H](CCCCN)NC(=O)[C@H](CCCCN)NC(=O)[C@H](CC(=O)O)NC(=O)[C@H](Cc1c[nH]c2ccccc12)NC(=O)[C@H](CCC(=O)O)NC(=O)[C@H](CCC(=O)O)NC(=O)[C@H](Cc1c[nH]c2ccccc12)NC(C)=O)C(=O)N[C@@H](CCC(=O)O)C(=O)N[C@@H](CCC(=O)O)C(=O)N[C@@H](Cc1ccc(O)cc1)C(=O)N[C@H](C(=O)N[C@@H](CCCCN)C(=O)N[C@@H](CCCCN)C(=O)N[C@H](C(=O)N[C@@H](CCC(=O)O)C(=O)N[C@@H](CCC(=O)O)C(=O)N[C@@H](CC(C)C)C(=O)N[C@H](C(=O)N[C@@H](CCCCN)C(=O)N[C@@H](CCCCN)C(=O)N[C@H](C(=O)N[C@@H](CCC(=O)O)C(=O)N[C@@H](CCC(=O)O)C(=O)N[C@@H](CCC(N)=O)C(=O)N[C@@H](CCC(N)=O)C(=O)N[C@@H](CCCCN)C(=O)N[C@@H](CCCCN)C(=O)N[C@@H](CC(N)=O)C(=O)N[C@@H](CCC(=O)O)C(=O)N[C@@H](CCC(=O)O)C(=O)N[C@@H](CCC(=O)O)C(=O)N[C@@H](CC(C)C)C(=O)N[C@@H](CCCCN)C(=O)N[C@@H](CCCCN)C(N)=O)[C@@H](C)CC)[C@@H](C)CC)[C@@H](C)CC)[C@@H](C)O` (Ac-WEEWDKKIEEYTKKIEELIKKIEEQQKKNEEELKK-NH2), the Activity is 11.3% in experiment [1], 4.7% in experiment [2], 7.6% in experiment [5] and 6.9% in experiment [6]. The Tm in experiment [3] was 84.6 °C. In addition, the EC50 in experiment [4] was determined as 1.3 nM.
On to `CC[C@H](C)[C@H](NC(=O)[C@H](CC(C)C)NC(=O)[C@H](CCC(=O)O)NC(=O)[C@H](CCC(=O)O)NC(=O)[C@@H](NC(=O)[C@H](CCCCN)NC(=O)[C@H](CCCCN)NC(=O)[C@@H](NC(=O)[C@H](Cc1ccc(O)cc1)NC(=O)[C@H](CCC(=O)O)NC(=O)[C@H](CCC(=O)O)NC(=O)[C@@H](NC(=O)[C@H](CCCCN)NC(=O)[C@H](CCCCN)NC(=O)[C@H](CC(=O)O)NC(=O)[C@H](Cc1c[nH]c2ccccc12)NC(=O)[C@H](CCC(=O)O)NC(=O)[C@H](CCC(=O)O)NC(=O)[C@H](Cc1c[nH]c2ccccc12)NC(C)=O)[C@@H](C)CC)[C@@H](C)O)[C@@H](C)CC)C(=O)N[C@@H](CCCCN)C(=O)N[C@@H](CCCCN)C(=O)N[C@@H](CCCCN)C(=O)N[C@@H](CCC(=O)O)C(=O)N[C@@H](CCC(=O)O)C(=O)N[C@@H](CCC(N)=O)C(=O)N[C@@H](CCC(N)=O)C(=O)N[C@@H](CCCCN)C(=O)N[C@@H](CCCCN)C(=O)N[C@@H](CC(N)=O)C(=O)N[C@@H](CCC(=O)O)C(=O)N[C@@H](CCC(=O)O)C(=O)N[C@@H](CCC(=O)O)C(=O)N[C@@H](CC(C)C)C(=O)N[C@@H](CCCCN)C(=O)N[C@@H](CCCCN)C(N)=O` (Ac-WEEWDKKIEEYTKKIEELIKKKEEQQKKNEEELKK-NH2), for which the Activity was 0% in experiment [1], 0.2% in experiment [2], 0.1% in experiment [5] and 3.6% in experiment [6]. In addition, in experiment [3], the Tm stood at 53.5 °C. Moreover, in experiment [4], the EC50 came to 8.2 nM.
`CC[C@H](C)[C@H](NC(=O)[C@H](CC(C)C)NC(=O)[C@H](CCC(=O)O)NC(=O)[C@H](CCC(=O)O)NC(=O)[C@@H](NC(=O)[C@H](CCCCN)NC(=O)[C@H](CCCCN)NC(=O)[C@@H](NC(=O)[C@H](Cc1ccc(O)cc1)NC(=O)[C@H](CCC(=O)O)NC(=O)[C@H](CCC(=O)O)NC(=O)[C@@H](NC(=O)[C@H](CCCCN)NC(=O)[C@H](CCCCN)NC(=O)[C@H](CC(=O)O)NC(=O)[C@H](Cc1c[nH]c2ccccc12)NC(=O)[C@H](CCC(=O)O)NC(=O)[C@H](CCC(=O)O)NC(=O)[C@H](Cc1c[nH]c2ccccc12)NC(C)=O)[C@@H](C)CC)[C@@H](C)O)[C@@H](C)CC)C(=O)N[C@@H](CCCCN)C(=O)N[C@@H](CCCCN)C(=O)N[C@@H](CCSC)C(=O)N[C@@H](CCC(=O)O)C(=O)N[C@@H](CCC(=O)O)C(=O)N[C@@H](CCC(N)=O)C(=O)N[C@@H](CCC(N)=O)C(=O)N[C@@H](CCCCN)C(=O)N[C@@H](CCCCN)C(=O)N[C@@H](CC(N)=O)C(=O)N[C@@H](CCC(=O)O)C(=O)N[C@@H](CCC(=O)O)C(=O)N[C@@H](CCC(=O)O)C(=O)N[C@@H](CC(C)C)C(=O)N[C@@H](CCCCN)C(=O)N[C@@H](CCCCN)C(N)=O` (Ac-WEEWDKKIEEYTKKIEELIKKMEEQQKKNEEELKK-NH2): the Activity in experiment [1] turned out to be 12.5%; in experiment [2], 8.9%; in experiment [5], 13.3%; in experiment [6], 6.8%. Further, the Tm in experiment [3] was found to be 84.1 °C. In experiment [4], the EC50 was found to be 0.68 nM.
Consider `CC[C@H](C)[C@H](NC(=O)[C@H](CC(C)C)NC(=O)[C@H](CCC(=O)O)NC(=O)[C@H](CCC(=O)O)NC(=O)[C@@H](NC(=O)[C@H](CCCCN)NC(=O)[C@H](CCCCN)NC(=O)[C@@H](NC(=O)[C@H](Cc1ccc(O)cc1)NC(=O)[C@H](CCC(=O)O)NC(=O)[C@H](CCC(=O)O)NC(=O)[C@@H](NC(=O)[C@H](CCCCN)NC(=O)[C@H](CCCCN)NC(=O)[C@H](CC(=O)O)NC(=O)[C@H](Cc1c[nH]c2ccccc12)NC(=O)[C@H](CCC(=O)O)NC(=O)[C@H](CCC(=O)O)NC(=O)[C@H](Cc1c[nH]c2ccccc12)NC(C)=O)[C@@H](C)CC)[C@@H](C)O)[C@@H](C)CC)C(=O)N[C@@H](CCCCN)C(=O)N[C@@H](CCCCN)C(=O)N[C@@H](CC(N)=O)C(=O)N[C@@H](CCC(=O)O)C(=O)N[C@@H](CCC(=O)O)C(=O)N[C@@H](CCC(N)=O)C(=O)N[C@@H](CCC(N)=O)C(=O)N[C@@H](CCCCN)C(=O)N[C@@H](CCCCN)C(=O)N[C@@H](CC(N)=O)C(=O)N[C@@H](CCC(=O)O)C(=O)N[C@@H](CCC(=O)O)C(=O)N[C@@H](CCC(=O)O)C(=O)N[C@@H](CC(C)C)C(=O)N[C@@H](CCCCN)C(=O)N[C@@H](CCCCN)C(N)=O` (Ac-WEEWDKKIEEYTKKIEELIKKNEEQQKKNEEELKK-NH2), for which the Activity in experiment [1] turned out to be 4.3%; in experiment [2], 1.1%; in experiment [5], 0.5%; in experiment [6], 6.4%. Moreover, the Tm in experiment [3] stood at 69 °C. For the same compound, the EC50 in experiment [4] stood at 2.2 nM.
On to `CC[C@H](C)[C@H](NC(=O)[C@H](CC(C)C)NC(=O)[C@H](CCC(=O)O)NC(=O)[C@H](CCC(=O)O)NC(=O)[C@@H](NC(=O)[C@H](CCCCN)NC(=O)[C@H](CCCCN)NC(=O)[C@@H](NC(=O)[C@H](Cc1ccc(O)cc1)NC(=O)[C@H](CCC(=O)O)NC(=O)[C@H](CCC(=O)O)NC(=O)[C@@H](NC(=O)[C@H](CCCCN)NC(=O)[C@H](CCCCN)NC(=O)[C@H](CC(=O)O)NC(=O)[C@H](Cc1c[nH]c2ccccc12)NC(=O)[C@H](CCC(=O)O)NC(=O)[C@H](CCC(=O)O)NC(=O)[C@H](Cc1c[nH]c2ccccc12)NC(C)=O)[C@@H](C)CC)[C@@H](C)O)[C@@H](C)CC)C(=O)N[C@@H](CCCCN)C(=O)N[C@@H](CCCCN)C(=O)N[C@@H](CCC(N)=O)C(=O)N[C@@H](CCC(=O)O)C(=O)N[C@@H](CCC(=O)O)C(=O)N[C@@H](CCC(N)=O)C(=O)N[C@@H](CCC(N)=O)C(=O)N[C@@H](CCCCN)C(=O)N[C@@H](CCCCN)C(=O)N[C@@H](CC(N)=O)C(=O)N[C@@H](CCC(=O)O)C(=O)N[C@@H](CCC(=O)O)C(=O)N[C@@H](CCC(=O)O)C(=O)N[C@@H](CC(C)C)C(=O)N[C@@H](CCCCN)C(=O)N[C@@H](CCCCN)C(N)=O` (Ac-WEEWDKKIEEYTKKIEELIKKQEEQQKKNEEELKK-NH2), for which the Activity in experiment [1] was 2.1%; in experiment [2] it was 0.9%; in experiment [5], 0.5%; in experiment [6] it was 6.1%. Moreover, the Tm in experiment [3] came out at 65.9 °C. Besides, the EC50 in experiment [4] was 2.4 nM.
With `CC[C@H](C)[C@H](NC(=O)[C@H](CC(C)C)NC(=O)[C@H](CCC(=O)O)NC(=O)[C@H](CCC(=O)O)NC(=O)[C@@H](NC(=O)[C@H](CCCCN)NC(=O)[C@H](CCCCN)NC(=O)[C@@H](NC(=O)[C@H](Cc1ccc(O)cc1)NC(=O)[C@H](CCC(=O)O)NC(=O)[C@H](CCC(=O)O)NC(=O)[C@@H](NC(=O)[C@H](CCCCN)NC(=O)[C@H](CCCCN)NC(=O)[C@H](CC(=O)O)NC(=O)[C@H](Cc1c[nH]c2ccccc12)NC(=O)[C@H](CCC(=O)O)NC(=O)[C@H](CCC(=O)O)NC(=O)[C@H](Cc1c[nH]c2ccccc12)NC(C)=O)[C@@H](C)CC)[C@@H](C)O)[C@@H](C)CC)C(=O)N[C@@H](CCCCN)C(=O)N[C@@H](CCCCN)C(=O)N[C@@H](CCCNC(=N)N)C(=O)N[C@@H](CCC(=O)O)C(=O)N[C@@H](CCC(=O)O)C(=O)N[C@@H](CCC(N)=O)C(=O)N[C@@H](CCC(N)=O)C(=O)N[C@@H](CCCCN)C(=O)N[C@@H](CCCCN)C(=O)N[C@@H](CC(N)=O)C(=O)N[C@@H](CCC(=O)O)C(=O)N[C@@H](CCC(=O)O)C(=O)N[C@@H](CCC(=O)O)C(=O)N[C@@H](CC(C)C)C(=O)N[C@@H](CCCCN)C(=O)N[C@@H](CCCCN)C(N)=O` (Ac-WEEWDKKIEEYTKKIEELIKKREEQQKKNEEELKK-NH2), the Activity in experiment [1] turned out to be 0%; in experiment [2], 0.3%; in experiment [5], 0.1%; in experiment [6], 2.5%. Also, in experiment [3], the Tm was determined as 52.3 °C. In addition, in experiment [4], the EC50 is 280 nM.

For the origin of these results see ChEMBL document CHEMBL3390848, “Affinity selection and sequence-activity relationships of HIV-1 membrane fusion inhibitors directed at the drug-resistant variants” (Medchemcomm, 2010).
